Experimental data from patent publication US20240174680A1, “CDK2 INHIBITORS AND METHODS OF USING THE SAME” (Cedilla Therapeutics, Inc., priority 2021, published 2024).

Biological target: CDK2/Cyclin E1 (Homo sapiens, UniProt P24941)
Assay: CDK2/Cyclin E1 Caliper LabChip EZ Reader mobility shift assay
Assay type: biochemical
Parameters: purchased Eurofins 14-475
Settings: read-out: Caliper Assay (CDK2/CCNE1): IC50
Summary of the method: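 Mobility-shift kinase assay: compound titrations preincubated 30 min with enzyme and ATP, reaction started with 5-FAM-QSPKKG-CONH2 peptide. Final 2.5 nM CDK2/Cyclin E1, 100 μM ATP, 1.5 μM peptide, HEPES pH 7.5; stopped with EDTA after 100 min. IC50 from four-parameter fit of normalized conversion ratio.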

SMILES: CNC(=O)[C@H](COCc1ccccc1)NC(=O)[C@@H]1CN(C(=O)c2cnn(Cc3ccccc3)c2)CC12CN(C(=O)C1(C(F)(F)F)CC1)C2 [I-113A, (S)-6-(1-benzyl-1H-pyrazole-4-carbonyl)-N—((S)-3-(benzyloxy)-1-(methylamino)-1-oxopropan-2-yl)-2-(1-(trifluoromethyl)cyclopropane-1-carbonyl)-2,6-diazaspiro[3.4]octane-8-carboxamide]
- IC50: 1000 to 10000 nM

SMILES: C[C@@H](OCC12CCC(CC1)OC2)[C@H](NC(=O)[C@@H]1CN(C(=O)c2cncs2)CC12CN(C(=O)[C@H]1CC1(C)C)C2)C(=O)N1CCC[C@H](COC(F)(F)F)C1 [I-460]
- IC50: ≤ 10 nM

SMILES: COC(=O)c1ccc(C2CCN(C(=O)[C@@H](NC(=O)[C@@H]3CN(C(=O)c4cnn(Cc5ccccc5)c4)CC34CN(C(=O)[C@H]3CC3(C)C)C4)[C@@H](C)OCC3CCCCC3)CC2)cc1 [I-147]
- IC50: ≤ 10 nM

SMILES: C[C@@H](OCC1CCOCC1)[C@@H](COC1CCC(F)(F)CC1)NC(=O)[C@@H]1CN(C(=O)c2cncs2)CC12CN(C(=O)[C@H]1CC1(C)C)C2 [I-312]
- IC50: 10 to 100 nM

SMILES: CNC(=O)[C@@H](NC(=O)[C@@H]1CN(C(=O)c2c[nH]c3ccccc23)CC12CN(C(=O)[C@H]1CC1(C)C)C2)[C@@H](C)OCc1ccccc1 [I-72A]
- IC50: > 10000 nM

SMILES: CNC(=O)[C@@H](NC(=O)[C@H]1CN(C(=O)c2scnc2Cl)CC12CN(C(=O)[C@H]1CC1(C)C)C2)[C@@H](C)OCC1CCCCC1 [I-157B]
- IC50: 100 to 1000 nM

SMILES: CNC(=O)[C@@H](NC(=O)[C@H]1CN(C(=O)c2cnn(Cc3ccccc3)c2)CC12CN(C(=O)CC1(CO)CC1)C2)[C@@H](C)OCc1ccccc1 [I-92B]
- IC50: > 10000 nM

SMILES: CNC(=O)[C@@H](NC(=O)[C@@H]1CN(C(=O)c2cnn(Cc3ccccc3)c2)CC12CN(C(=O)[C@H]1CC1(C)C)C2)C(C)(C)OCc1ccccc1 [I-393]
- IC50: 10 to 100 nM

SMILES: CNC(=O)[C@@H](NC(=O)[C@@H]1CN(C(=O)c2cncs2)CC12CN(C(=O)[C@H]1CC1(C)C)C2)[C@@H](C)OC[C@H]1CC[C@@H](C)CC1 [I-354]
- IC50: ≤ 10 nM

SMILES: C[C@@H](OCC1CCOCC1)[C@@H](COC1CCC(F)(F)CC1)NC(=O)[C@@H]1CN(C(=O)c2cncs2)CC12CN(C(=O)C(C)(C)C1CC1)C2 [I-333, (S)-2-(2-cyclopropyl-2-methylpropanoyl)-N-((2R,3R)-1-((4,4-difluorocyclohexyl)oxy)-3-((tetrahydro-2H-pyran-4-yl)methoxy)butan-2-yl)-6-(thiazole-5-carbonyl)-2,6-diazaspiro[3.4]octane-8-carboxamide]
- IC50: 10 to 100 nM

SMILES: CNC(=O)[C@@H](NC(=O)[C@@H]1CN(C(=O)c2cncs2)CC12CN(CC1CCOC1)C2)[C@@H](C)OCC12CCC(CC1)OC2 (some centres unmarked) [I-345]
- IC50: > 10000 nM

SMILES: CNC(=O)[C@@H](NC(=O)[C@@H]1CN(C(=O)c2cncs2)CC12CN(C(=O)[C@H]1CC1(C)C)C2)C1(OCc2ccccc2)CC1 [I-375]
- IC50: 100 to 1000 nM

SMILES: CNC(=O)[C@@H](NC(=O)[C@H]1CN(C(=O)c2scnc2C(F)(F)F)CC12CN(C(=O)[C@H]1CC1(C)C)C2)[C@@H](C)OCC1CCCCC1 [I-163B]
- IC50: > 10000 nM

SMILES: CNC(=O)[C@@H](NC(=O)[C@@H]1CN(C(=O)c2cnn(Cc3ccccc3)c2)CC12CN(C(=O)[C@H]1CC1(C)C)C2)[C@@H](C)NCC1CCCCC1 [I-269, (S)-6-(1-benzyl-1H-pyrazole-4-carbonyl)-N-((2S,3R)-3-((cyclohexylmethyl)amino)-1-(methylamino)-1-oxobutan-2-yl)-2-((S)-2,2-dimethylcyclopropane-1-carbonyl)-2,6-diazaspiro[3.4]octane-8-carboxamide]
- IC50: 100 to 1000 nM

SMILES: CO[C@H](C)[C@H](NC(=O)[C@@H]1CN(C(=O)c2cnn(Cc3ccccc3)c2)CC12CN(C(=O)[C@H]1CC1(C)C)C2)C(=O)N1CCC(CN)CC1 [I-306]
- IC50: 1000 to 10000 nM

SMILES: C[C@@H]1C[C@H](C)CN(C(=O)[C@@H](NC(=O)C2CN(C(=O)c3cncs3)CC23CN(C(=O)[C@H]2CC2(C)C)C3)[C@@H](C)OCC2CCCCC2)C1 (some centres unmarked) [I-172]
- IC50: ≤ 10 nM

SMILES: CNC(=O)[C@@H](NC(=O)[C@@H]1CN(C(=O)c2cncs2)CC12CN(Cc1cnco1)C2)[C@@H](C)OCC12CCC(CC1)OC2 [I-350]
- IC50: > 10000 nM

SMILES: CNC(=O)[C@@H](NC(=O)[C@H]1CN(C(=O)c2cncs2)CC12CN(C(=O)[C@H]1CC1(C)C)C2)[C@@H](C)OCc1ccccc1 [I-24B]
- IC50: > 10000 nM

SMILES: CNC(=O)[C@@H](NC(=O)[C@@H]1CN(Cc2cn[nH]c2)CC12CN(C(=O)[C@H]1CC1(C)C)C2)[C@@H](C)OCc1ccccc1 [I-50A]
- IC50: > 10000 nM

SMILES: Cc1nc(C)c(C(=O)N2C[C@@H](C(=O)N[C@H](C(=O)N3CCC(C(F)(F)F)CC3)[C@@H](C)OCC34CCC(CC3)OC4)C3(C2)CN(C(=O)[C@H]2CC2(C)C)C3)s1 [I-456]
- IC50: ≤ 10 nM

SMILES: CNC(=O)[C@@H](NC(=O)[C@H]1CN(Cc2cnc[nH]2)CC12CN(C(=O)[C@H]1CC1(C)C)C2)[C@@H](C)OCc1ccccc1 [I-77B]
- IC50: > 10000 nM

SMILES: CC1(C)C[C@@H]1C(=O)N1CC2(CN(C(=O)c3cnn(Cc4ccccc4)c3)C[C@H]2C(=O)Nc2cccc(-c3ccccc3)c2)C1 [I-63A]
- IC50: 1000 to 10000 nM

SMILES: CNC(=O)[C@@H](NC(=O)[C@H]1CN(C(=O)c2cnn(Cc3ccccc3)c2)CC12CN(C(=O)C1(CC3CC3)CC1)C2)[C@@H](C)OCc1ccccc1 [I-116B]
- IC50: > 10000 nM

SMILES: CNC(=O)C(NC(=O)[C@@H]1CN(C(=O)c2cncs2)CC12CN(C(=O)[C@H]1CC1(C)C)C2)C(O)Cc1ccccc1 (some centres unmarked) [I-356]
- IC50: > 10000 nM

SMILES: CNC(=O)C(NC(=O)[C@@H]1CN(C(=O)c2cn[nH]c2)CC12CN(C(=O)[C@H]1CC1(C)C)C2)C(O)Cc1ccccc1 (some centres unmarked) [I-298]
- IC50: > 10000 nM

SMILES: CNC(=O)[C@@H](NC(=O)[C@H]1CN(C(=O)c2cnn(CC3CCOCC3)c2)CC12CN(C(=O)[C@H]1CC1(C)C)C2)[C@@H](C)OCC1CCCCC1 [I-121B]
- IC50: 1000 to 10000 nM

SMILES: CNC(=O)[C@@H](NC(=O)[C@@H]1CN(C(=O)c2cnn(Cc3ccc(F)cc3)c2)CC12CN(C(=O)[C@H]1CC1(C)C)C2)[C@@H](C)OCC1CCC(F)(F)CC1 [I-170]
- IC50: ≤ 10 nM

SMILES: C[C@@H](OCC1CCC(F)(F)CC1)[C@H](NC(=O)[C@@H]1CN(C(=O)c2cnn(Cc3ccc(F)cc3)c2)CC12CN(C(=O)[C@H]1CC1(C)C)C2)C(=O)N1CCC(F)(F)CC1 [I-164A]
- IC50: ≤ 10 nM

SMILES: C[C@@H](OCC1CCCCC1)[C@H](NC(=O)C1CN(C(=O)c2cnn(Cc3ccccc3)c2)CC12CN(C(=O)[C@H]1CC1(C)C)C2)C(=O)N1CC2(CCC2)C1 (some centres unmarked) [I-107]
- IC50: ≤ 10 nM

SMILES: CNC(=O)[C@@H](NC(=O)[C@H]1CN(C(=O)c2cnn(Cc3ccccc3)c2)CC12CN(C(=O)C1C(C)(C)C1(C)C)C2)[C@@H](C)OCc1ccccc1 [I-89B]
- IC50: > 10000 nM

SMILES: CNC(=O)[C@@H](NC(=O)[C@@H]1CN(C(=O)C2CCOCC2)CC12CN(C(=O)[C@H]1CC1(C)C)C2)[C@@H](C)OCc1ccccc1 [I-38A]
- IC50: > 10000 nM

SMILES: CNC(=O)[C@@H](NC(=O)[C@H]1CN(C(=O)c2cnc(C)s2)CC12CN(C(=O)[C@H]1CC1(C)C)C2)[C@@H](C)OCC1CCCCC1 [I-156B]
- IC50: > 10000 nM

SMILES: CNC(=O)[C@@H](NC(=O)[C@@H]1CN(C(=O)c2cnn(Cc3ccccc3)c2)CC12CN(C(=O)[C@H]1CC1(C)C)C2)[C@@H](C)OCC1CCCCCC1 [I-166A]
- IC50: ≤ 10 nM

SMILES: C[C@@H](OCc1ccc(C(F)(F)F)cc1)[C@H](NC(=O)[C@@H]1CN(C(=O)c2cncs2)CC12CN(C(=O)[C@H]1CC1(C)C)C2)C(=O)N1C2CCC1COC2 [I-470]
- IC50: ≤ 10 nM

SMILES: CNC(=O)[C@@H](NC(=O)[C@@H]1CN(C(=O)c2cnn(Cc3ccccc3)c2)CC12CN(C(=O)CC(C)C)C2)[C@@H](C)OCc1ccccc1 [I-69A]
- IC50: 100 to 1000 nM

SMILES: CNC(=O)[C@@H](NC(=O)[C@H]1CN(Cc2cn[nH]c2)CC12CN(C(=O)[C@H]1CC1(C)C)C2)[C@@H](C)OCc1ccccc1 [I-50B]
- IC50: > 10000 nM

SMILES: CC1(C)C[C@@H]1C(=O)N1CC2(CN(C(=O)c3cncs3)C[C@H]2C(=O)NC(c2cccc(C3CCCCC3)n2)C2CCCO2)C1 (some centres unmarked) [I-495]
- IC50: 10 to 100 nM

SMILES: CNC(=O)[C@@H](NC(=O)[C@@H]1CN(C(=O)c2cnn(Cc3ccccc3)c2)CC12CN(C(=O)[C@H]1CC1(C)C)C2)[C@@H](C)OCC1C[C@@H](C)C[C@@H](C)C1 (some centres unmarked) [I-249]
- IC50: 10 to 100 nM

SMILES: Cc1ccc(C(C)NC(=O)[C@@H]2CN(C(=O)c3cnn(Cc4ccccc4)c3)CC23CN(C(=O)[C@H]2CC2(C)C)C3)nn1 (some centres unmarked) [I-366]
- IC50: 1000 to 10000 nM

SMILES: CNC(=O)[C@@H](NC(=O)[C@@H]1CN(C(=O)c2cnn(Cc3ccccc3)c2)CC12CN(C(=O)[C@H]1CC1(C)C)C2)[C@@H](C)N(C)CC1CCCCC1 [I-266]
- IC50: 1000 to 10000 nM

SMILES: CCC(CC)C(=O)N1CC2(CN(C(=O)c3cnn(Cc4ccccc4)c3)C[C@@H]2C(=O)N[C@H](C(=O)NC)[C@@H](C)OCc2ccccc2)C1 [I-74B]
- IC50: > 10000 nM

SMILES: CO[C@@H]1CC[C@H](NC(=O)[C@@H]2CN(C(=O)c3cnn(Cc4ccccc4)c3)CC23CN(C(=O)[C@H]2CC2(C)C)C3)C1 [I-248]
- IC50: > 10000 nM

SMILES: CNC(=O)[C@@H](NC(=O)[C@@H]1CN(C(=O)c2cnn(Cc3ccccc3)c2)CC12CN(C(=O)CC1(COC)CC1)C2)[C@@H](C)OCc1ccccc1 [I-82A]
- IC50: > 10000 nM

SMILES: CNC(=O)[C@@H](NC(=O)[C@H]1CN(C(=O)c2cnn(Cc3ccccc3)c2)CC12CN(C(=O)[C@H]1CC1(C)C)C2)C(C)(C)SCc1ccccc1 [I-171B]
- IC50: > 10000 nM

SMILES: CNC(=O)[C@@H](NC(=O)[C@@H]1CN(C(=O)c2cnn(Cc3ccccc3)c2)CC12CN(C(=O)[C@H]1CC1(C)C)C2)[C@@H](C)N(CC1CCCCC1)C(C)=O [I-273, (S)-6-(1-benzyl-1H-pyrazole-4-carbonyl)-N-((2S,3R)-3-(N-(cyclohexylmethyl)acetamido)-1-(methylamino)-1-oxobutan-2-yl)-2-((S)-2,2-dimethylcyclopropane-1-carbonyl)-2,6-diazaspiro[3.4]octane-8-carboxamide]
- IC50: > 10000 nM

SMILES: CNC(=O)[C@@H](NC(=O)[C@H]1CN(C(=O)c2cnn(CC3CC3)c2)CC12CN(C(=O)CC1CC1)C2)[C@@H](C)OCc1ccccc1 [I-53B]
- IC50: > 10000 nM

SMILES: CC1(C)C[C@@H]1C(=O)N1CC2(CN(C(=O)c3cnn(Cc4ccccc4)c3)C[C@H]2C(=O)N[C@@H]2CCCN(CC3CCCCC3)C2)C1 [I-212]
- IC50: 1000 to 10000 nM
